Measurements published in PubChem BioAssay (NCI).
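Test compounds were applied to cells in 96-well plates for 48 hours at 5 doses. TGI: concentration producing complete growth inhibition.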

What was measured:
Experiment in all cases: DTP human tumour cell line panel, 48 h
[1] = tested on: EKVX NSCLC
[2] = tested on: HOP-62 NSCLC
[3] = tested on: MDA-MB-231 breast
[4] = tested on: SK-MEL-5 melanoma
[5] = tested on: MDA-MB-435
[6] = tested on: SR leukemia
[7] = tested on: TK-10 renal
[8] = tested on: RPMI-8226 leukemia
[9] = tested on: K-562 leukemia
[10] = tested on: U251 CNS
[11] = tested on: PC-3 prostate
[12] = tested on: HS 578T breast
[13] = tested on: UACC-257 melanoma
[14] = tested on: SK-OV-3 ovarian
[15] = tested on: A549 NSCLC
[16] = tested on: HCC-2998 colon
[17] = tested on: COLO 205 colon
[18] = tested on: OVCAR-5 ovarian
[19] = tested on: HT29 colon
[20] = tested on: SNB-75 CNS
[21] = tested on: SW-620 colon
[22] = tested on: SNB-19 CNS
[23] = tested on: NCI/ADR-RES ovarian
[24] = tested on: HCT-15 colon
[25] = tested on: SK-MEL-28 melanoma
[26] = tested on: OVCAR-4 ovarian
[27] = tested on: HCT-116 colon
[28] = tested on: M14 melanoma
[29] = tested on: SF-295 CNS
[30] = tested on: SF-539 CNS
[31] = tested on: T-47D breast
[32] = tested on: ACHN renal
[33] = tested on: CCRF-CEM leukemia
[34] = tested on: MOLT-4 leukemia
[35] = tested on: SN12C renal
[36] = tested on: UO-31 renal
[37] = tested on: MDA-N
[38] = tested on: HL-60(TB) leukemia
[39] = tested on: KM12 colon
[40] = tested on: NCI-H522 lung
[41] = tested on: SF-268 CNS
[42] = tested on: IGROV1 ovarian
[43] = tested on: OVCAR-8 ovarian
[44] = tested on: 786-0 renal
[45] = tested on: MCF7 breast
[46] = tested on: NCI-H460 lung

Measured: TGI

Cn1c(-c2ccc(/C=N/N=C/c3ccc(-c4c[n+]5ccccc5n4C)cc3)cc2)c[n+]2ccccc12
> 100 µM: [1] | [2] | [3] | [4] | [5] | [6] | [7] | [8] | [9] | [10] | [11] | [12] | [13] | [14] | [15] | [16] | [17] | [18] | [19] | [20] | [21] | [22] | [23] | [24] | [25] | [26] | [27] | [28] | [29] | [30] | [31] | [32] | [33] | [34] | [35] | [36] | [37] | [38] | [39] | [40] | [41] | [42] | [43] | [44] | [45] | [46]
